Where “and” joins values, the source holds several entries; their conditions need not be identical. Equal values may be shown once. Inconclusive results and toxic doses are left out. How the source made its calls: active means survival T/C of 150% or more; inactive means T/C below 125% in these data.
Tested on: CD2F1 mice, L1210 leukemia ip, survival T/C
Assay: NCI In Vivo Anticancer Drug Screen. Data for tumor model L1210 Leukemia (intraperitoneal) in CD2F1 (CDF1) mice
Settings: higher = longer survival
Summary of the method: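 Vehicle-treated tumor-bearing mice served as controls (C) for compound-treated mice (T). Reported figure is T divided by C.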

[1] = endpoint: mean survival time, dose: 100.0 mg/kg/injection, schedule: Q04DX003 (ip), vehicle: saline with Tween-80
[2] = endpoint: mean survival time, dose: 200.0 mg/kg/injection, schedule: Q04DX003 (ip), vehicle: saline with Tween-80
[3] = endpoint: mean survival time, dose: 400.0 mg/kg/injection, schedule: Q04DX003 (ip), vehicle: saline with Tween-80
[4] = endpoint: mean survival time, dose: 12.5 mg/kg/injection, schedule: Q04DX002 (ip), vehicle: saline with Tween-80
[5] = endpoint: mean survival time, dose: 25.0 mg/kg/injection, schedule: Q04DX002 (ip), vehicle: saline with Tween-80
[6] = endpoint: mean survival time, dose: 100.0 mg/kg/injection, schedule: Q01DX009 (ip), vehicle: saline with Tween-80
[7] = endpoint: mean survival time, dose: 200.0 mg/kg/injection, schedule: Q01DX009 (ip), vehicle: saline with Tween-80
[8] = endpoint: mean survival time, dose: 100.0 mg/kg/injection, schedule: Q04DX002 (ip), vehicle: saline with Tween-80
[9] = endpoint: mean survival time, dose: 200.0 mg/kg/injection, schedule: Q04DX002 (ip), vehicle: saline with Tween-80

Measured: T/C

Nc1nc(=S)c2[nH]c(-c3ccccc3)nc2[nH]1
inactive: endpoint: mean survival time, dose: 12.5 mg/kg/injection, schedule: Q01DX005 (ip), vehicle: other 96 % of control | endpoint: mean survival time, dose: 25.0 mg/kg/injection, schedule: Q01DX005 (ip), vehicle: other 90 % of control | endpoint: mean survival time, dose: 50.0 mg/kg/injection, schedule: Q01DX005 (ip), vehicle: other 93 % of control | endpoint: mean survival time, dose: 100.0 mg/kg/injection, schedule: Q01DX005 (ip), vehicle: other 93 % of control | endpoint: mean survival time, dose: 200.0 mg/kg/injection, schedule: Q01DX005 (ip), vehicle: other 90 % of control

CC1CCC(C(C)C)C(OC(=O)N/N=C/N(C)C)C1 (centres undefined)
inactive: endpoint: mean survival time, dose: 100.0 mg/kg/injection, schedule: Q01DX009 (ip), vehicle: other 95 % of control | endpoint: mean survival time, dose: 200.0 mg/kg/injection, schedule: Q01DX009 (ip), vehicle: other 119 % of control

O=NN(CCCl)C(=O)Nc1ccccn1
inactive: endpoint: mean survival time, dose: 12.5 mg/kg/injection, schedule: Q01DX001 (ip), vehicle: other 101 % of control | endpoint: mean survival time, dose: 25.0 mg/kg/injection, schedule: Q01DX001 (ip), vehicle: other 94 % of control | endpoint: mean survival time, dose: 50.0 mg/kg/injection, schedule: Q01DX001 (ip), vehicle: other 101 % of control | endpoint: mean survival time, dose: 100.0 mg/kg/injection, schedule: Q01DX001 (ip), vehicle: other 96 % of control

O=C(O)/C=C/C(=O)NC1CCCCC1
inactive: [1] 97 % of control and 101 % of control | [2] 101 % of control and 97 % of control | [3] 98 % of control and 95 % of control

CC(C)(C)c1cc(C(C)(C)C)nc([N+](C)(C)C)c1
inactive: [4] 108 % of control | [5] 101 % of control | endpoint: mean survival time, dose: 50.0 mg/kg/injection, schedule: Q04DX002 (ip), vehicle: saline with Tween-80 101 % of control

S=C(S)Nc1cccc2ccccc12
inactive: [6] 93 % of control | [7] 97 % of control | endpoint: mean survival time, dose: 400.0 mg/kg/injection, schedule: Q01DX009 (ip), vehicle: saline with Tween-80 93 % of control

Cc1csc2nc(-c3ccccc3)[nH]c(=S)c12
inactive: [1] 90 % of control | [3] 87 % of control

O=C1N(c2ccccc2)SN2C3C=CC(C4CC43)N12 (centres undefined)
inactive: [4] 114 % of control | [5] 105 % of control

COc1ccc(/C=N/NC(N)=S)cc1
inactive: endpoint: mean survival time, dose: 16.0 mg/kg/injection, schedule: Q01DX008 (iv), vehicle: saline 98 % of control | endpoint: mean survival time, dose: 32.0 mg/kg/injection, schedule: Q01DX008 (iv), vehicle: saline 100 % of control | endpoint: mean survival time, dose: 32.0 mg/kg/injection, schedule: Q01DX009 (ip), vehicle: saline 100 % of control and 109 % of control | endpoint: mean survival time, dose: 64.0 mg/kg/injection, schedule: Q01DX008 (iv), vehicle: saline 97 % of control | endpoint: mean survival time, dose: 64.0 mg/kg/injection, schedule: Q01DX009 (ip), vehicle: saline 98 % of control | endpoint: mean survival time, dose: 128.0 mg/kg/injection, schedule: Q01DX009 (ip), vehicle: saline 100 % of control and 109 % of control | endpoint: mean survival time, dose: 256.0 mg/kg/injection, schedule: Q01DX009 (ip), vehicle: saline 104 % of control and 112 % of control

CC1=C2CCCCC2(C)CCC1=O (centres undefined)
inactive: [8] 120 % of control | [9] 108 % of control | endpoint: mean survival time, dose: 400.0 mg/kg/injection, schedule: Q04DX002 (ip), vehicle: saline with Tween-80 100 % of control

CCCC1CCC(=C2C(=O)CCC2=O)O1 (centres undefined)
inactive: endpoint: median survival time, dose: 25.0 mg/kg/injection, schedule: Q01DX009 (ip), vehicle: saline with Tween-80 98 % of control | endpoint: median survival time, dose: 50.0 mg/kg/injection, schedule: Q01DX009 (ip), vehicle: saline with Tween-80 100 % of control | endpoint: median survival time, dose: 100.0 mg/kg/injection, schedule: Q01DX009 (ip), vehicle: saline with Tween-80 100 % of control | endpoint: median survival time, dose: 200.0 mg/kg/injection, schedule: Q01DX009 (ip), vehicle: saline with Tween-80 102 % of control

[Cl][Pt+2][Cl].[NH-]CCN(CCN)CCN
inactive: endpoint: mean survival time, dose: 12.5 mg/kg/injection, schedule: Q04DX003 (ip), vehicle: saline with Tween-80 97 % of control | endpoint: mean survival time, dose: 25.0 mg/kg/injection, schedule: Q04DX003 (ip), vehicle: saline with Tween-80 98 % of control

O=C1OCSc2ccccc21
inactive: endpoint: mean survival time, dose: 25.0 mg/kg/injection, schedule: Q01DX009 (ip), vehicle: saline sonified 108 % of control | endpoint: mean survival time, dose: 50.0 mg/kg/injection, schedule: Q01DX009 (ip), vehicle: saline sonified 102 % of control | endpoint: mean survival time, dose: 100.0 mg/kg/injection, schedule: Q01DX009 (ip), vehicle: saline sonified 102 % of control | [1] 100 % of control | [2] 101 % of control | [3] 97 % of control

CC(=O)Nc1ncc2ccccc2c1-c1ccc(NC(=O)CCN(CCCl)CCCl)cc1
inactive: endpoint: mean survival time, dose: 6.25 mg/kg/injection, schedule: Q04DX003 (ip), vehicle: other 101 % of control | endpoint: mean survival time, dose: 12.5 mg/kg/injection, schedule: Q04DX003 (ip), vehicle: other 111 % of control | endpoint: mean survival time, dose: 25.0 mg/kg/injection, schedule: Q04DX003 (ip), vehicle: other 112 % of control

O.O.O=C(O)c1ccccc1C(=O)O.[NH-]C1CCCCC1[NH-].[Pt+2]
inactive: endpoint: mean survival time, dose: 3.13 mg/kg/injection, schedule: Q04DX003 (ip), vehicle: dextrose 109 % of control | endpoint: mean survival time, dose: 6.25 mg/kg/injection, schedule: Q04DX003 (ip), vehicle: dextrose 106 % of control | endpoint: mean survival time, dose: 25.0 mg/kg/injection, schedule: Q04DX003 (ip), vehicle: dextrose 106 % of control | endpoint: mean survival time, dose: 50.0 mg/kg/injection, schedule: Q04DX003 (ip), vehicle: dextrose 95 % of control

CC1(C)C([N+](C)(C)C)CS1(=O)=O (centres undefined)
inactive: endpoint: mean survival time, dose: 100.0 mg/kg/injection, schedule: Q01DX001 (ip), vehicle: saline 105 % of control | endpoint: mean survival time, dose: 100.0 mg/kg/injection, schedule: Q04DX003 (ip), vehicle: saline 96 % of control | endpoint: mean survival time, dose: 200.0 mg/kg/injection, schedule: Q01DX001 (ip), vehicle: saline 103 % of control | endpoint: mean survival time, dose: 200.0 mg/kg/injection, schedule: Q04DX003 (ip), vehicle: saline 101 % of control | endpoint: mean survival time, dose: 400.0 mg/kg/injection, schedule: Q01DX001 (ip), vehicle: saline 103 % of control | endpoint: mean survival time, dose: 400.0 mg/kg/injection, schedule: Q04DX003 (ip), vehicle: saline 96 % of control

CCC(c1ccc(O)c(CN(CC)CC)c1)C(CC)c1ccc(O)c(CN(CC)CC)c1 (centres undefined)
inactive: [8] 92 % of control | [9] 92 % of control

CC(=O)Nc1nc(Br)c2ccccc2c1-c1ccc(N)cc1
inactive: endpoint: mean survival time, dose: 50.0 mg/kg/injection, schedule: Q04DX003 (ip), vehicle: other 97 % of control | endpoint: mean survival time, dose: 100.0 mg/kg/injection, schedule: Q04DX003 (ip), vehicle: other 94 % of control | endpoint: mean survival time, dose: 200.0 mg/kg/injection, schedule: Q04DX003 (ip), vehicle: other 94 % of control | endpoint: mean survival time, dose: 400.0 mg/kg/injection, schedule: Q04DX003 (ip), vehicle: other 102 % of control

O=COC1CC2CC1C1CCCC21 (centres undefined)
inactive: endpoint: mean survival time, dose: 50.0 mg/kg/injection, schedule: Q01DX009 (ip), vehicle: saline with Tween-80 95 % of control | [6] 93 % of control | [7] 97 % of control

CC(=O)c1ccc2c3c(cccc13)CC2
inactive: endpoint: mean survival time, dose: 100.0 mg/kg/injection, schedule: Q01DX001 (ip), vehicle: saline with Tween-80 94 % of control | endpoint: mean survival time, dose: 200.0 mg/kg/injection, schedule: Q01DX001 (ip), vehicle: saline with Tween-80 96 % of control | endpoint: mean survival time, dose: 400.0 mg/kg/injection, schedule: Q01DX001 (ip), vehicle: saline with Tween-80 110 % of control

c1ccc(-c2n[nH]c3ccccc23)cc1
inactive: endpoint: median survival time, dose: 50.0 mg/kg/injection, schedule: Q04DX002 (ip), vehicle: saline with Tween-80 100 % of control | endpoint: median survival time, dose: 100.0 mg/kg/injection, schedule: Q04DX002 (ip), vehicle: saline with Tween-80 100 % of control | endpoint: median survival time, dose: 200.0 mg/kg/injection, schedule: Q04DX002 (ip), vehicle: saline with Tween-80 100 % of control

From PubChem BioAssay AID256 (DTP/NCI, 2004)
